Measurements published in the NIST ThermoML archive (doi:10.1021/je200309v).
± gives the expanded uncertainty stated by the source.

Assay: mn = molality of the nth substance listed, in mol/kg
Details: 101 kPa, Liquid, Alternating current cell with electrodes

CC[N+](CC)(CC)CC.F[B-](F)(F)F [tetraethylammonium tetrafluoroborate] + CC1COC(=O)O1
electrical conductivity [S/m]
Details | m1 = 0.1593 | m1 = 0.461 | m1 = 0.5658 | m1 = 0.7282 | m1 = 0.8234 | m1 = 0.9666 | m1 = 1.186 | m1 = 1.425
253.15 K | 0.1317 ± 0.0013 | 0.278 ± 0.0028 | 0.3133 ± 0.0031 | 0.3523 ± 0.0035 | 0.366 ± 0.0037 | 0.3749 ± 0.0037 | 0.359 ± 0.0036 | –
273.15 K | 0.239 ± 0.0024 | 0.519 ± 0.0052 | 0.591 ± 0.0059 | 0.676 ± 0.0068 | 0.712 ± 0.0071 | 0.745 ± 0.0075 | 0.75 ± 0.0075 | 0.689 ± 0.007
293.15 K | 0.364 ± 0.0036 | 0.812 ± 0.0081 | 0.929 ± 0.0093 | 1.07 ± 0.011 | 1.128 ± 0.011 | 1.19 ± 0.012 | 1.201 ± 0.012 | 1.116 ± 0.011
313.15 K | 0.516 ± 0.0052 | 1.16 ± 0.012 | 1.333 ± 0.013 | 1.543 ± 0.015 | 1.635 ± 0.016 | 1.73 ± 0.017 | 1.77 ± 0.018 | 1.69 ± 0.017
333.15 K | 0.678 ± 0.0068 | 1.535 ± 0.015 | 1.76 ± 0.018 | 2.049 ± 0.02 | 2.18 ± 0.022 | 2.314 ± 0.023 | 2.4 ± 0.024 | 2.307 ± 0.023
